Read-outs that look alike come from different tables or passages of the source.
Assays:
Assay in all cases: Sulforhodamine B (SRB) growth inhibition assay
Format in all cases: cell-based, Human
Hop62 = settings: for ratio vs gem (GI50) Hop62: GI50 of conjugate vs gemcitabine; for GI50: SRB assay
Protocol: (§1) In Vitro Screening of PEG-Gemcitabine Monophosphate in Selected Human Cancer Cell Lines
(§2) The aim was to determine the GI50 values for PEG-floxuridine conjugates against a panel of cell lines, and based on previous data from Xenograft studies. […] The test articles were solubilized in dimethylsulfoxide and were tested at four different molar (M) concentrations; 10^−4, 10^−5, 10^−6, M. GI50 (the concentration needed to reduce the growth of treated cells to half that of untreated control cells) was calculated for each condition ([(Ti−Tz)/(C-Tz)]×100=50, where Ti, Tz, and C refer to absorbance values obtained from each tested concentration, time zero, and control treatment, respectively).
as §2, with “The objective” for “The aim”, “the IC50” for “the GI50”, “for PEG-gemcitabine” for “for PEG-floxuridine”, “in dimethyl sulfoxide” for “in dimethylsulfoxide”, “10^−6, 10^−7” for “10^−6,”, “condition ([(Ti−Tz)/(C−Tz)]×100=50,” for “condition ([(Ti−Tz)/(C-Tz)]×100=50,”

HT29 = settings: for ratio vs gem (GI50) HT29: GI50 of conjugate vs gemcitabine; for GI50: SRB assay
Protocol: as §1, §2
as §2, with “The objective” for “The aim”, “the IC50” for “the GI50”, “for PEG-gemcitabine” for “for PEG-floxuridine”, “in dimethyl sulfoxide” for “in dimethylsulfoxide”, “10^−6, 10^−7” for “10^−6,”, “condition ([(Ti−Tz)/(C−Tz)]×100=50,” for “condition ([(Ti−Tz)/(C-Tz)]×100=50,”

A2780 = settings: for ratio vs gem (GI50) A2780: GI50 of conjugate vs gemcitabine; for GI50: SRB assay
Protocol: as §1, §2
as §2, with “The objective” for “The aim”, “the IC50” for “the GI50”, “for PEG-gemcitabine” for “for PEG-floxuridine”, “in dimethyl sulfoxide” for “in dimethylsulfoxide”, “10^−6, 10^−7” for “10^−6,”, “condition ([(Ti−Tz)/(C−Tz)]×100=50,” for “condition ([(Ti−Tz)/(C-Tz)]×100=50,”

MCF7 = settings: for ratio vs gem (GI50) MCF7: GI50 of conjugate vs gemcitabine; for GI50: SRB assay
Protocol: as §1, §2
as §2, with “The objective” for “The aim”, “the IC50” for “the GI50”, “for PEG-gemcitabine” for “for PEG-floxuridine”, “in dimethyl sulfoxide” for “in dimethylsulfoxide”, “10^−6, 10^−7” for “10^−6,”, “condition ([(Ti−Tz)/(C−Tz)]×100=50,” for “condition ([(Ti−Tz)/(C-Tz)]×100=50,”

COLO205 = settings: for GI50: COLO205, SRB assay; for ratio vs gem (GI50) COLO-205: GI50 of conjugate vs gemcitabine
Protocol: as §1, §2
as §2, with “The objective” for “The aim”, “the IC50” for “the GI50”, “for PEG-gemcitabine” for “for PEG-floxuridine”, “in dimethyl sulfoxide” for “in dimethylsulfoxide”, “10^−6, 10^−7” for “10^−6,”, “condition ([(Ti−Tz)/(C−Tz)]×100=50,” for “condition ([(Ti−Tz)/(C-Tz)]×100=50,”

HCT15 = settings: for ratio vs gem (GI50) HCT15: GI50 of conjugate vs gemcitabine; for GI50: SRB assay
Protocol: as §1, §2
as §2, with “The objective” for “The aim”, “the IC50” for “the GI50”, “for PEG-gemcitabine” for “for PEG-floxuridine”, “in dimethyl sulfoxide” for “in dimethylsulfoxide”, “10^−6, 10^−7” for “10^−6,”, “condition ([(Ti−Tz)/(C−Tz)]×100=50,” for “condition ([(Ti−Tz)/(C-Tz)]×100=50,”

[1] = 48 h drug exposure, read-out: GI50 (molar concentration) in Cell Line Hop62
[2] = cells exposed for 24 h, read-out: GI50 values (μM) Hop62
[3] = 48 h drug exposure, read-out: GI50 (molar concentration) in Cell Line HT29
[4] = cells exposed for 24 h, read-out: GI50 values (μM) HT29
[5] = 48 h drug exposure, read-out: GI50 (molar concentration) in Cell Line A2780
[6] = cells exposed for 24 h, read-out: GI50 values (μM) A2780
[7] = 48 h drug exposure, read-out: GI50 (molar concentration) in Cell Line MCF7
[8] = cells exposed for 24 h, read-out: GI50 values (μM) MCF7
[9] = 48 h drug exposure, read-out: GI50 (molar concentration) in Cell Line COLO205
[10] = cells exposed for 24 h, read-out: GI50 values (μM) COLO205
[11] = 48 h drug exposure, read-out: GI50 (molar concentration) in Cell Line HCT15
[12] = cells exposed for 24 h, read-out: GI50 values (μM) HCT15

Row | SMILES | ratio vs gem (GI50) Hop62 (Hop62) | GI50 (Hop62; [1]) [µM] | GI50 (Hop62; [2]) [µM] | ratio vs gem (GI50) HT29 (HT29) | GI50 (HT29; [3]) [µM] | GI50 (HT29; [4]) [µM] | ratio vs gem (GI50) A2780 (A2780) | GI50 (A2780; [5]) [µM] | GI50 (A2780; [6]) [µM] | ratio vs gem (GI50) MCF7 (MCF7) | GI50 (MCF7; [7]) [µM] | GI50 (MCF7; [8]) [µM] | GI50 (COLO205; [9]) [µM] | GI50 (COLO205; [10]) [µM] | ratio vs gem (GI50) COLO-205 (COLO205) | ratio vs gem (GI50) HCT15 (HCT15) | GI50 (HCT15; [11]) [µM] | GI50 (HCT15; [12]) [µM]
1 | COCCOCCOCCOCCOCCOCCOCCOP(=O)(O)OC[C@H]1O[C@@H](n2ccc(N)nc2=O)C(F)(F)[C@@H]1O.Cl [Gemcitabine Mono (mPEG7), 5′-gemcitabine methoxy hepta(ethylene glycol) phosphate hydrochloride] | 1 | 2.4 | 2.4 | 15 | 32 | 32 | 2 | 0.15 | 0.15 | 2 | 0.16 | 0.16 | 0.18 | 0.18 | 1 | 14 | 2.3 | 2.3
2 | COCCOCCOCCOP(=O)(O)OC[C@H]1O[C@@H](n2ccc(N)nc2=O)C(F)(F)[C@@H]1O.Cl [Gemcitabine Mono (mPEG3), 5′-gemcitabine methoxy tri(ethylene glycol) phosphate hydrochloride] | 1 | 2.6 | 2.6 | 13 | 28 | 28 | 2 | 0.15 | 0.15 | 2 | 0.16 | 0.158 | 0.16 | 0.16 | 1 | 14 | 2.2 | 2.2

From patent US9365604B2, “Oligomer-nucleoside phosphate conjugates” (NEKTAR THERAPEUTICS, priority 2007, dated 2016)
